In publication PMC6150311, “Proline-Based Carbamates as Cholinesterase Inhibitors” (Molecules : A Journal of Synthetic Chemistry and Natural …, 2017):

Assays:
[1] = target: T1, AChE from electric eel (Electrophorus electricus) (Electrophorus electricus, UniProt O42275); experiment: In vitro AChE inhibition, modified Ellman's method; assay type: biochemical
T1 construct: AChE (from electric eel) and BChE (from equine serum); purchased Sigma, St. Louis, MO, USA; host or cells: electric eel (animal source)
Method: (§1) The ability of all prepared compounds to inhibit AChE from electric eel (Electrophorus electricus) and BChE from equine serum (both purchased from Sigma, St. Louis, MO, USA) was determined in vitro using a modified Ellman’s method. […] The Ellman’s method is widely used for measuring cholinesterase activity and the effectivity of ChEIs. It is a simple, rapid and direct method to determine SH and –S–S– groups content in proteins. Cholinesterase activity is measured indirectly by quantifying the concentration of 5-thio-2-nitrobenzoic acid (TNB) ion formed in the reaction between disulfide reagent 5,5′-dithiobis-2-nitrobenzoic acid (DTNB) and thiocholine, a product of substrate (i.e., acetylthiocholine, ATCh) hydrolysis catalyzed by cholinesterase.
(§2) All tested compounds were dissolved in DMSO (concentration 0.01 M) and diluted in demineralized water (concentrations 0.001 M and 0.0001 M). The ability of tested compounds to inhibit AChE (from electric eel) and BChE (from equine serum) was determined using the modified Ellman’s method at 25 °C in the presence of phosphate buffered saline (PBS, 0.1 M, pH 7.4) in a glass cuvette with 1 cm optical path. The enzyme activity in total reaction mixture (2 mL) was 0.2 U/mL, the concentration of substrate ATCh 40 μM and the concentration of DTNB 0.1 mM for all reactions. The IC50 value was obtained from the dependence of v0/vi on the concentration of the tested compound (inhibitor), where v0 is the reaction rate of uninhibited reaction and vi is the reaction rate of inhibited reaction (for the given concentration of the inhibitor). First, v0 was determined. Into the cuvette PBS (0.1 M, pH 7.4), DTNB and ATCh were placed. The enzymatic reaction was started by adding the enzyme. […] The measurement was performed in triplicate at least, and average v0 was determined. Then, vi (for the given concentration of the inhibitor) was determined. Into the cuvette DTNB, ATCh, a chosen volume of the suitably diluted inhibitor (to achieve the required concentration of the inhibitor in the total reaction mixture) and a certain volume of PBS (to achieve the total volume of the reaction mixture 2 mL after adding the enzyme) were placed. The enzymatic reaction was started by adding the enzyme. […] For determination of IC50 values, twelve different concentrations of inhibitor were used and each measurement was performed in triplicate at least.

BChE from equine serum = target: T2, BChE from equine serum (Equus caballus, UniProt P81908); experiment: In vitro BChE inhibition, modified Ellman's method; assay type: biochemical; conditions: for SI (index selectivity) = IC50 (AChE)/IC50 (BChE): ratio AChE/BChE, higher = more selective to BChE
T2 construct: BChE (from equine serum); purchased Sigma, St. Louis, MO, USA; host or cells: equine serum
Method: as §1, §2

[2] = system: human monocytic leukemia THP-1 cells; experiment: In vitro cytotoxicity assay (WST-1); assay type: cell-based; conditions: 24 h, highest tested concentration 30 μM, read-out: tox. IC50
Method: The cytotoxicity was evaluated as the IC50 value (compound concentration causing 50% inhibition of cell population proliferation) (see Table 1). […] Based on these observations, it can be concluded that the discussed compounds can be considered as non-toxic agents for subsequent design of novel drugs.
Human monocytic leukemia THP-1 cells were used for in vitro toxicity assay. Cells were obtained from the European Collection of Cell Cultures (ECACC, Salisbury, UK) and routinely cultured in RPMI 1640 (Lonza, Verviers, Belgium) medium supplemented with 10% fetal bovine serum (FBS, Sigma), 2% L-glutamine, 1% penicillin and streptomycin (Lonza, Verviers, Belgium) at 37 °C with 5% CO2. Cells were passaged at approximately one week intervals. The cytotoxicity of the compounds was determined using a WST-1 assay kit (Roche Diagnostics, Mannheim, Germany) according to the manufacturer’s instructions. The tested compounds were dissolved in DMSO and added in five increasing concentrations (0.37, 1.1, 3.3, 10, and 30 μM) to the cell suspension in the culture RPMI 1640 medium. The maximum concentration of DMSO (Sigma) in the assays never exceeded 0.1%. Subsequently, the cells were incubated for 24 h at 37 °C with 5% CO2. For WST-1 assays, cells were seeded into 96-well plates (5 × 10^4 cells/well in 100 μL culture medium) in triplicate in serum-free RPMI 1640 medium, and measurements were taken 24 h after the treatment with the compounds. The median inhibition concentration values, IC50, were deduced through the production of a dose-response curve. All data were evaluated using the GraphPad Prism 5.00 software (GraphPad Software, San Diego, CA, USA).

T2 sequence (P81908 whole entry): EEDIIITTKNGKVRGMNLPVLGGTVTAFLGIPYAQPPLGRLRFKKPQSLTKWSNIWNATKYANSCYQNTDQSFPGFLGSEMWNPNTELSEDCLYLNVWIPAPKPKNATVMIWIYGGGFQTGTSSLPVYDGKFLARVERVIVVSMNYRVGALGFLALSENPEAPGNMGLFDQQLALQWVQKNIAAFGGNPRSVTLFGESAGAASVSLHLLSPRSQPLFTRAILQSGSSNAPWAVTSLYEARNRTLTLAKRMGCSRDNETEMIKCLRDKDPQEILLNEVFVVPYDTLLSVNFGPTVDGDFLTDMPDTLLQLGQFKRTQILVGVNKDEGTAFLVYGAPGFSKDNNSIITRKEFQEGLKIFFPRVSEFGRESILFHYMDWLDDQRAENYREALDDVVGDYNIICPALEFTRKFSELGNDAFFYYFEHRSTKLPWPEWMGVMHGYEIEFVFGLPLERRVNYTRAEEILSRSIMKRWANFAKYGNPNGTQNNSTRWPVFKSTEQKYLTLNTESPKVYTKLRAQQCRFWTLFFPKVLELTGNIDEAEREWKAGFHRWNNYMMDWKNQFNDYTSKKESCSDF
T1 sequence (O42275 24-633): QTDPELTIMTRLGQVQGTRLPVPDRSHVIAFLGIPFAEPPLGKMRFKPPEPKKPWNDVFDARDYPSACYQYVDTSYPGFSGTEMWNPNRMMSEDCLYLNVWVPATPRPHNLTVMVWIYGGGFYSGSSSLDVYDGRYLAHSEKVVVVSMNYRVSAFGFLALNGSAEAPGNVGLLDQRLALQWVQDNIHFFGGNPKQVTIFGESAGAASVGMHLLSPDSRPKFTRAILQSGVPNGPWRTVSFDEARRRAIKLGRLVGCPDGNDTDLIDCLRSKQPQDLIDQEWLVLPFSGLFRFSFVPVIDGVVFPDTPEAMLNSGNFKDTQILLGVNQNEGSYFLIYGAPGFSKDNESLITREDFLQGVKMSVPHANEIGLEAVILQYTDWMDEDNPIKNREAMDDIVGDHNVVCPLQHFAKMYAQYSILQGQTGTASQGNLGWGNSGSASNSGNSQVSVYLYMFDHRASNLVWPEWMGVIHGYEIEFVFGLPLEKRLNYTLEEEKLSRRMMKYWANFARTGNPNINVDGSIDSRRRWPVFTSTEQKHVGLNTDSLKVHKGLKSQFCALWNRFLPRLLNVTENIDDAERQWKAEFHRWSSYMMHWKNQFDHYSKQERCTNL

SMILES | IC50 [1] [µM] | IC50 (BChE from equine serum) [µM] | SI (index selectivity) = IC50 (AChE)/IC50 (BChE) (BChE from equine serum) | IC50 [2] [µM] | selectivity to BChE (in words) (BChE from equine serum; BChE vs AChE)
O=C(Nc1cccc(Cl)c1)[C@@H]1CCCN1C(=O)OCc1ccccc1 [Compound 5b, Benzyl (2S)-2-[(3-chlorophenyl)carbamoyl]pyrrolidine-1-carboxylate] | 48.27 ± 0.11 | 64.2 ± 7.14 | 0.75 | > 30 | 
O=C(Nc1ccccc1O)[C@@H]1CCCN1C(=O)OCc1ccccc1 [Compound 9a, Benzyl (2S)-2-[(2-hydroxyphenyl)carbamoyl]pyrrolidine-1-carboxylate] | 153 ± 9.97 | 42 ± 1.26 | 3.65 | > 30 | greater selectivity to BChE
O=C(Nc1cccc([N+](=O)[O-])c1)[C@@H]1CCCN1C(=O)OCc1ccccc1 [Compound 8b, Benzyl (2S)-2-[(3-nitrophenyl)carbamoyl]pyrrolidine-1-carboxylate] | 65 ± 0.97 | 55.9 ± 0.63 | 1.16 | > 30 | 
COc1cccc(NC(=O)[C@@H]2CCCN2C(=O)OCc2ccccc2)c1 [Compound 2b, Benzyl (2S)-2-[(3-methoxyphenyl)carbamoyl]pyrrolidine-1-carboxylate] | 126 ± 2.79 | 58.47 ± 0.42 | 2.16 | > 30 | 
Cc1ccc(NC(=O)[C@@H]2CCCN2C(=O)OCc2ccccc2)cc1 [Compound 3c, Benzyl (2S)-2-[(4-methylphenyl)carbamoyl]pyrrolidine-1-carboxylate] | 123.4 ± 0.44 | 153 ± 2.29 | 0.81 | > 30 | 
O=C(Nc1ccc(Cl)cc1)[C@@H]1CCCN1C(=O)OCc1ccccc1 [Compound 5c, Benzyl (2S)-2-[(4-chlorophenyl)carbamoyl]pyrrolidine-1-carboxylate] | 77.3 ± 3.8 | 147.3 ± 1.18 | 0.52 | > 30 | 
O=C(Nc1ccc(C(F)(F)F)cc1)[C@@H]1CCCN1C(=O)OCc1ccccc1 [Compound 7c, Benzyl (2S)-2-{[4-(trifluoromethyl)phenyl]carbamoyl}pyrrolidine-1-carboxylate] | 88.6 ± 1.6 | 75.5 ± 2.94 | 1.17 | > 30 | 
O=C(Nc1ccccc1Cl)[C@@H]1CCCN1C(=O)OCc1ccccc1 [Compound 5a, Benzyl (2S)-2-[(2-chlorophenyl)carbamoyl]pyrrolidine-1-carboxylate] | 46.4 ± 1.05 | 53.47 ± 0.52 | 0.87 | > 30 | 
O=C(Nc1ccccc1F)[C@@H]1CCCN1C(=O)OCc1ccccc1 [Compound 4a, Benzyl (2S)-2-[(2-fluorophenyl)carbamoyl]pyrrolidine-1-carboxylate] | 51.9 ± 0.76 | 60 | 0.86 | > 30 | 
Cc1ccccc1NC(=O)[C@@H]1CCCN1C(=O)OCc1ccccc1 [Compound 3a, Benzyl (2S)-2-[(2-methylphenyl)carbamoyl]pyrrolidine-1-carboxylate] | 61.9 ± 1.35 | 98.3 ± 5.88 | 0.63 | > 30 | 
O=C(Nc1cccc(F)c1)[C@@H]1CCCN1C(=O)OCc1ccccc1 [Compound 4b, Benzyl (2S)-2-[(3-fluorophenyl)carbamoyl]pyrrolidine-1-carboxylate] | 69.88 ± 0.21 | 34.61 ± 0.11 | 2.02 | > 30 | 
O=C(Nc1cccc(C(F)(F)F)c1)[C@@H]1CCCN1C(=O)OCc1ccccc1 [Compound 7b, Benzyl (2S)-2-{[3-(trifluoromethyl)phenyl]carbamoyl}pyrrolidine-1-carboxylate] | 68.91 ± 0.06 | 39.5 ± 1.4 | 1.75 | > 30 | 
O=C(Nc1cccc(Br)c1)[C@@H]1CCCN1C(=O)OCc1ccccc1 [Compound 6b, Benzyl (2S)-2-[(3-bromophenyl)carbamoyl]pyrrolidine-1-carboxylate] | 74.16 ± 0.2 | 47.68 ± 0.08 | 1.56 | > 30 | 
O=C(Nc1ccc(F)cc1)[C@@H]1CCCN1C(=O)OCc1ccccc1 [Compound 4c, Benzyl (2S)-2-[(4-fluorophenyl)carbamoyl]pyrrolidine-1-carboxylate] | 87.2 ± 1 | 58.1 ± 1.39 | 1.50 | > 30 | 
O=C(Nc1cccc(O)c1)[C@@H]1CCCN1C(=O)OCc1ccccc1 [Compound 9b, Benzyl (2S)-2-[(3-hydroxyphenyl)carbamoyl]pyrrolidine-1-carboxylate] | 122 ± 1.38 | 86.22 ± 0.4 | 1.41 | > 30 | 
O=C(Nc1ccc([N+](=O)[O-])cc1)[C@@H]1CCCN1C(=O)OCc1ccccc1 [Compound 8c, Benzyl (2S)-2-[(4-nitrophenyl)carbamoyl]pyrrolidine-1-carboxylate] | 84.52 ± 0.06 | 58.75 ± 0.27 | 1.44 | > 30 | 
Cc1cccc(NC(=O)[C@@H]2CCCN2C(=O)OCc2ccccc2)c1 [Compound 3b, Benzyl (2S)-2-[(3-methylphenyl)carbamoyl]pyrrolidine-1-carboxylate] | 81.06 ± 0.03 | 115 ± 4.83 | 0.71 | > 30 | 
O=C(Nc1ccccc1C(F)(F)F)[C@@H]1CCCN1C(=O)OCc1ccccc1 [Compound 7a, Benzyl (2S)-2-{[2-(trifluoromethyl)phenyl]carbamoyl}pyrrolidine-1-carboxylate] | 73.2 ± 2.88 | 44.9 ± 1.66 | 1.63 | > 30 | 
O=C(Nc1ccc(O)cc1)[C@@H]1CCCN1C(=O)OCc1ccccc1 [Compound 9c, Benzyl (2S)-2-[(4-hydroxyphenyl)carbamoyl]pyrrolidine-1-carboxylate] | 91.08 ± 0.27 | 133 ± 0.39 | 0.68 | > 30 | 
O=C(Nc1ccccc1)[C@@H]1CCCN1C(=O)OCc1ccccc1 [Compound 1, Benzyl (2S)-2-(phenylcarbamoyl)pyrrolidine-1-carboxylate] | 106 ± 2.2 | 55.6 ± 1.01 | 1.91 | > 30 | 
COc1ccccc1NC(=O)[C@@H]1CCCN1C(=O)OCc1ccccc1 [Compound 2a, Benzyl (2S)-2-[(2-methoxyphenyl)carbamoyl]pyrrolidine-1-carboxylate] | 131 ± 1.29 | 51.5 ± 0.75 | 2.54 | > 30 | 
O=C(Nc1ccccc1[N+](=O)[O-])[C@@H]1CCCN1C(=O)OCc1ccccc1 [Compound 8a, Benzyl (2S)-2-[(2-nitrophenyl)carbamoyl]pyrrolidine-1-carboxylate] | 152.21 ± 0.01 | 48.7 ± 0.8 | 3.13 | > 30 | 
